Measurements taken from patent US10508109B2 (priority 2015, dated 2019).
Structures can show the parent of a compound that is named as a salt. Where two headings read alike, the source gives them in different places.

Key:
[1] = tested on: A549; assay: Cell-based assay, anti-proliferative activity (Cell Counting Kit-8, 72 hours); details: Homo sapiens, read-out: IC50 (μM) A549
In short: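 Cells were seeded in 96-well plates and exposed to candidate inhibitors. Cellular growth was then determined with the colorimetric kit, and IC50 values were calculated from the growth data.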

[2] = tested on: CCD-18Co; assay: as above; details: Homo sapiens, read-out: IC50 (μM) CCD-18Co
In short: (§1)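 Cells were seeded in 96-well plates and exposed to the inhibitors for 72 hours, after which growth was measured with Cell Counting Kit-8. IC50 was derived from a serial dilution series of 0, 1.5625, 3.125, 6.25, 12.5, 25, 50 and 100 micro-M.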

[3] = tested on: PC14; assay: as above; details: Homo sapiens, read-out: IC50 (μM) PC14
In short: as §1

[4] = tested on: HFL1; assay: as above; details: Homo sapiens, read-out: IC50 (μM) HFL1
In short: as §1

[5] = tested on: HCT-116; assay: as above; details: Homo sapiens, read-out: IC50 (μM) HCT-116
In short: as §1

[6] = molecular target: SUV39H2 (Homo sapiens (Human), UniProt Q9H5I1); details: read-out: IC50 (μM) Suv 39H2 assay; enzyme assay
[7] = A549 cells, Cell Counting Kit-8, 72 hours
[8] = CCD-18Co cells, Cell Counting Kit-8, 72 hours
[9] = PC-14, PC14 cells, Cell Counting Kit-8, 72 hours
[10] = HFL1 cells, Cell Counting Kit-8, 72 hours
[11] = HCT-116 cells, Cell Counting Kit-8, 72 hours
[12] = A549 cells, 72 hours, Cell Counting Kit-8
[13] = CCD-18Co cells, 72 hours, Cell Counting Kit-8
[14] = PC-14, PC14 cells, 72 hours, Cell Counting Kit-8
[15] = HFL1 cells, 72 hours, Cell Counting Kit-8
[16] = HCT-116 cells, 72 hours, Cell Counting Kit-8

SUV39H2, sequence (Q9H5I1 whole entry): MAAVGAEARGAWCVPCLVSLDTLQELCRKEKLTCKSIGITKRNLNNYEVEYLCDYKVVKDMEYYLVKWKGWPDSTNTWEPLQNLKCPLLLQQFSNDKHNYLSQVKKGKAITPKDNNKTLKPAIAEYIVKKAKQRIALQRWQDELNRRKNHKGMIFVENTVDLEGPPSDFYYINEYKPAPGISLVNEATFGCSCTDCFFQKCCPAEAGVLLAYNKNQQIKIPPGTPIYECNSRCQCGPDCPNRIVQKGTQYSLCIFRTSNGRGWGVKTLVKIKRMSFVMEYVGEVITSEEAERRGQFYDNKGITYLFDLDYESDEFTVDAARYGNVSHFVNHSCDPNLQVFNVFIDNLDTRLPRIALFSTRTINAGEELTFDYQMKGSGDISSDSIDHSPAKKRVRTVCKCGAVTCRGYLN

| Compound | IC50 [1, 7] [µM] | IC50 [2, 8] [µM] | IC50 [3, 9] [µM] | IC50 [4, 10] [µM] | IC50 [5, 11] [µM] | IC50 [6] [µM] | IC50 [1, 12] [µM] | IC50 [2, 13] [µM] | IC50 [3, 14] [µM] | IC50 [4, 15] [µM] | IC50 [5, 16] [µM] | IC50 ([2]; CCD-18Co, 72 h) [µM] | IC50 ([3]; PC-14, 72 h) [µM] | IC50 ([4]; HFL1, 72 h) [µM] | IC50 ([5]; HCT-116, 72 h) [µM] | IC50 ([1]; A549, 72 h) [µM] |
| --- | --- | --- | --- | --- | --- | --- | --- | --- | --- | --- | --- | --- | --- | --- | --- | --- |
| COc1cc(OC)c(-c2cn3ccc(N4CCC(NC(C)=O)CC4)cc3n2)cc1Cl [Example 124, N-{1-[2-(5-chloro-2,4-dimethoxyphenyl)imidazo[1,2-a]pyridin-7-yl]piperidin-4-yl}acetamide] | 2.2 | 3.1 | 1.9 | 3.1 | 1.9 | 0.00327 |  |  |  |  |  |  |  |  |  |  |
| COc1cc(OCCCN(C)C)c(-c2cn3ccc(N4CCC(NS(C)(=O)=O)CC4)cc3n2)cc1Cl [Example 164, N-(1-(2-(5-chloro-2-(3-(dimethylamino)propoxy)-4-methoxyphenyl)-imidazo[1,2-a]pyridin-7-yl)piperidin-4-yl)methanesulfonamide] | 10 | 7.2 | 8.8 | 8.6 | 9 | 0.0211 |  |  |  |  |  |  |  |  |  |  |
| CC[C@@H](C)[C@H](NC(=O)OC(C)(C)C)C(=O)Nc1ccn2cc(-c3cc(Cl)c(OC)cc3OC)nc2c1 [Example 257, tert-butyl ((2S,3R)-1-((2-(5-chloro-2,4-dimethoxyphenyl)imidazo[1,2-a]-pyridin-7-yl)amino)-3-methyl-1-oxopentan-2-yl)carbamate] |  |  |  |  |  | 0.0435 | 5 | 5.1 | 3 | 5.2 | 5.5 |  |  |  |  |  |
| COC(=O)NC1CCN(c2ccn3cc(-c4cc(Cl)c(OC)cc4OC)nc3c2)CC1 [Example 122, methyl (1-(2-(5-chloro-2,4-dimethoxyphenyl)imidazo[1,2-a]pyridin-7-yl)piperidin-4-yl)carbamate] | 2.7 | 6.4 | 3.3 | 4.9 | 5.8 | 0.00814 |  |  |  |  |  |  |  |  |  |  |
| COc1cc(OC)c(-c2cn3cc(NCCN)c(N4CCOCC4)cc3n2)cc1Cl [Example 89, N^1-(2-(5-chloro-2,4-dimethoxyphenyl)-7-morpholinoimidazo[1,2-a]-pyridin-6-yl)ethane-1,2-diamine] | 3 | 3 | 2.7 | 1.6 | 4.4 | 0.00335 |  |  |  |  |  |  |  |  |  |  |
| COc1cc(OC)c(-c2cn3ccc(-c4ccc(C(=O)NCCCN)cc4)cc3n2)cc1Cl [Example 265, N-(3-aminopropyl)-4-(2-(5-chloro-2,4-dimethoxyphenyl)imidazo-[1,2-a]pyridin-7-yl)benzamide] |  |  |  |  |  | 0.036 | 5.5 | 7.3 | 4.2 | 4.7 | 5.2 |  |  |  |  |  |
| COc1cc(OCCCN(C)C)c(-c2cn3ccc(N4CCNCC4)nc3n2)cc1Cl [Example 186, 3-(4-chloro-5-methoxy-2-(7-(piperazin-1-yl)imidazo[1,2-a]pyrimidin-2-yl)phenoxy)-N,N-dimethylpropan-1-amine] | 22 | 35 | 12 | 7.3 | 17 | 0.0619 |  |  |  |  |  |  |  |  |  |  |
| COc1cc(OC)c(-c2cn3ccc(N4CCC(NS(C)(=O)=O)C4)cc3n2)cc1Cl (stereo not shown) [Example 40, N-(1-(2-(5-chloro-2,4-dimethoxyphenyl)imidazo[1,2-a]pyridin-7-yl)pyrrolidin-3-yl)methanesulfonamide] | 17 | 15 | 6.7 | 14 | 14 | 0.00381 |  |  |  |  |  |  |  |  |  |  |
| COc1cc(OC)c(-c2cn3ccc(N4CCN(CCN5CCN(C(=O)OC(C)(C)C)CC5)CC4)cc3n2)cc1Cl [Example 136, tert-butyl 4-(2-(4-(2-(5-chloro-2,4-dimethoxyphenyl)imidazo[1,2-a]pyridin-7-yl)piperazin-1-yl)ethyl)piperazine-1-carboxylate] | 1.5 | 1.8 | 2.2 | 1.8 | 1.5 | 0.0166 |  |  |  |  |  |  |  |  |  |  |
| COc1cc(OC)c(-c2cn3cc(Br)c(N4CCNCC4)cc3n2)cc1Cl [Example 217, 6-bromo-2-(5-chloro-2,4-dimethoxyphenyl)-7-(piperazin-1-yl)-imidazo[1,2-a]pyridine] |  |  |  |  |  | 0.0416 | 7.2 | 4.3 | 3.4 | 4.9 | 5.5 |  |  |  |  |  |
| COc1cc(OCCCN(C)C)c(-c2cn3ccc(N4CCCN(S(C)(=O)=O)CC4)cc3n2)cc1Cl [Example 213, 3-(4-chloro-2-(7-(4-(methylsulfonyl)-1,4-diazepan-1-yl)imidazo-[1,2-a]pyridin-2-yl)-5-methoxyphenoxy)-N,N-dimethylpropan-1-amine] |  |  |  |  |  | 0.0145 | 10 | 10 | 9.1 | 7.4 | 5.5 |  |  |  |  |  |
| COc1cc(OC)c(-c2cn3ccc(C4CCC(N)CC4)cc3n2)cc1Cl (stereo not shown) [Example 125, 4-(2-(5-chloro-2,4-dimethoxyphenyl)imidazo[1,2-a]pyridin-7-yl)-cyclohexanamine] | 2.3 | 2.9 | 5 | 2.7 | 2.7 | 0.0651 |  |  |  |  |  |  |  |  |  |  |
| COc1cc(OC)c(-c2cn3ccc(N[C@H]4CC[C@H](CN5CCN(Cc6ccccc6)CC5)CC4)cc3n2)cc1Cl [Example 278, trans-N-(4-((4-benzylpiperazin-1-yl)methyl)cyclohexyl)-2-(5-chloro-2,4-dimethoxyphenyl)imidazo[1,2-a]pyridin-7-amine 2,2,2-trifluoroacetate] |  |  |  |  |  | 0.0707 | 1.4 |  |  |  |  | 1.2 | 1.3 | 0.73 | 0.84 |  |
| COc1cc(OCSC)c(-c2cn3ccc(N4CCN(S(=O)(=O)C5CC5)CC4)cc3n2)cc1Cl [Example 255, 2-(5-chloro-4-methoxy-2-((methylthio)methoxy)phenyl)-7-(4-(cyclopropylsulfonyl)piperazin-1-yl)imidazo[1,2-a]pyridine] |  |  |  |  |  | 0.00672 | 2.5 | 1.9 | 1.5 | 1.7 | 2.3 |  |  |  |  |  |
| COc1cc(OCCCN(C)C)c(-c2cn3ccc(N4CCCN(S(=O)(=O)C5CC5)CC4)cc3n2)cc1Cl [Example 212, 3-(4-chloro-2-(7-(4-(cyclopropylsulfonyl)-1,4-diazepan-1-yl)imidazo[1,2-a]-pyridin-2-yl)-5-methoxyphenoxy)-N,N-dimethylpropan-1-amine] | 8.1 | 6 | 4.2 | 5.8 | 8.6 | 0.0161 |  |  |  |  |  |  |  |  |  |  |
| CNCC(=O)Nc1ccc(-c2ccn3cc(-c4cc(Cl)c(OC)cc4OC)nc3c2)cc1 [Example 273, N-(4-(2-(5-chloro-2,4-dimethoxyphenyl)imidazo[1,2-a]pyridin-7-yl)phenyl)-2-(methylamino)acetamide hydrochloride] |  |  |  |  |  |  |  |  |  |  |  | 1.1 | 1.1 | 1.2 | 0.86 | 1.5 |
| COc1cc(OC)c(-c2cn3ccc(N4CC[C@H](NCc5ccncc5)C4)cc3n2)cc1Cl [Example 298, (S)-1-(2-(5-chloro-2,4-dimethoxyphenyl)imidazo[1,2-a]pyridin-7-yl)-N-(pyridin-4-ylmethyl)pyrrolidin-3-amine trihydrochloride] |  |  |  |  |  |  | 0.67 | 1.4 | 0.79 | 0.84 | 0.5 |  |  |  |  |  |
| COc1cc(OC)c(-c2cn3ccc(-c4ccc(C(=O)[C@H](C)N)cc4)cc3n2)cc1Cl [Example 274, (S)-2-amino-1-(4-(2-(5-chloro-2,4-dimethoxyphenyl)imidazo[1,2-a]-pyridin-7-yl)phenyl)propan-1-one hydrochloride] |  |  |  |  |  |  |  | 1.5 | 0.74 | 1.4 | 1.6 |  |  |  |  | 1.2 |
| COc1cc(OC)c(-c2cn3ccc(NC(=O)C(N)CCCCN)cc3n2)cc1Cl (stereo in doubt) [Example 247, (S)-2,6-diamino-N-(2-(5-chloro-2,4-dimethoxyphenyl)imidazo[1,2-a]-pyridin-7-yl)hexanamide] |  |  |  |  |  |  | 10 | 10 | 5.7 | 10 | 10 |  |  |  |  |  |
| COC(=O)N1CC=C(c2ccn3cc(-c4cc(Cl)c(OC)cc4OC)nc3c2)CC1 [Example 102, methyl 4-[2-(5-chloro-2,4-dimethoxyphenyl)imidazo[1,2-a]pyridin-7-yl]-5,6-dihydropyridine-1(2H)-carboxylate] | 1.6 | 2.8 |  | 2.3 | 1.9 | 0.0756 |  |  |  |  |  |  |  |  |  |  |
